{
  "source": "patent US8691799B2",
  "about": "“Materials and methods for treatment of cancer and identification of anti-cancer compounds” (priority 2001, dated 2014)",
  "key": {"[1]": {"test_system": "phospho-Akt", "test": "Western blotting for phospho-Akt", "format": "cell-based, human", "conditions": "A549 and MDA-MB-468 cells, up to 10 μM", "description": "(§1) Western Blotting. Treated cell samples were lysed in 30 mM Hepes, pH 7.5, 10 mM NaCl, 5 mM MgCl2, 25 mM NaF, 1 mM EGTA, 1% Triton-X-100, 10% glycerol, 2 mM sodium orthovanadate, 10 μg/ml aprotinin, 10 μg/ml soybean trypsin inhibitor, 25 μg/ml leupeptin, 2 mM PMSF, and 6.4 mg/ml p-nitrophenylphosphate. Phospho-STAT3, phospho-AKT, phospho-MEK, and phospho-p42/p44 MAPK antibodies were obtained from Cell Signaling Technologies, Cambridge, Mass. Antibodies to STAT3, JAK2, and phospho-INK were purchased from Santa Cruz Biotechnology, Santa Cruz, Calif. Phospho-JAK2 antibody came from Upstate Biotechnology, Lake Placid, N.Y. Membranes were blocked in either 5% milk in PBS, pH 7.4, containing 0.1% Tween-20 (PBS-T) or 1% BSA in TBS, pH 7.5, containing 0.1% Tween-20 (TBS-T). Phospho-specific antibodies (excepting P-MAPK and P-JNK) were incubated in 1% BSA in TBS-T while all other antibodies were diluted in 5% milk in PBS-T for either 2 hr at room temperature or overnight at 4° C. HRP-conjugated secondary antibodies (Jackson ImmunoResearch) were diluted in 5% milk in either PBS-T or TBS-T at 1:1000 dilution for one hour at room temperature. Western blots were visualized using enhanced chemiluminescence as described previously (Blaskovich, M. A. et al. Nat. Biotechnol., 2000, 18:1065-1070)."}, "[2]": {"test_system": "A549 tumors", "test": "Antitumor activity, A549 xenograft in nude mice", "format": "in vivo", "source_text": "Antitumor Activity in the Nude Mouse Tumor Xenograft Model. Nude mice and C57 BL-6 black mice (National Cancer Institute, Bethesda, Md.) were maintained in accordance with the Institutional Animal Care and Use Committee (IACUC) procedures and guidelines. v-Src- and oncogenic H-Ras-transformed NIH 3T3, A549, MDA-MB-468 and Calu-1 cells were harvested, resuspended in PBS and injected s.c. into the right and left flank (10×10^6 cells per flank) of 8 week old female nude mice as reported previously (Sun, J. et al. Cancer Res., 1999, 59:4919-4926). Similarly, murine B16-F10 Melanoma cells were injected s.c. into the right and left flank (10^6 cells per flank) of C57 black mice. When tumors reached about 150 mm^3, animals were randomized (five animals per group; two tumors per animal) and dosed i.p. with 0.2 ml once daily. […] The tumor volumes were determined by measuring the length (l) and the width (w) and calculating the volume (V=1w^2/2) as described previously (Sun, J. et al. Cancer Res., 1999, 59:4919-4926). Statistical significance between control and treated animals were evaluated by using Student's t-test. For the mouse survival experiments, C57 BL-6 black mice were implanted s.c. with B16-F10 cells (10^5 to 10^6 cells per flank). […] Percent surviving mice was determined by monitoring the death of mice until all mice died. […]"}, "[3]": {"test_system": "phosphotyrosine STAT3", "test": "Western blotting for phosphotyrosine STAT3 in cancer cell lines", "format": "cell-based, human", "description": "as §1\nImmunoprecipitation of STAT3. A549 cells were treated for 4 hr with vehicle or JSI-124, then lysed in 150 mM Hepes, pH 7.5, 150 mM NaCl, 1 mM EDTA, 0.5% Nonidet P-40 (NP-40), 10% glycerol, 5 mM NaF, 1 mM DTT, 1 mM PMSF, 2 mM sodium orthovanadate, and 5 μg/ml leupeptin. Sample lysates were collected and cleared, then 500 μg of lysate was immunoprecipitated with 50 ng STAT3 antibody overnight at 4° C. then rocked with 25 μl Protein A/G PLUS agarose (Santa Cruz Biotechnology) for 1 hr at 4° C. Samples were washed four times with lysis buffer then boiled in 2×SDS-PAGE sample buffer and run on 10% SDS-PAGE gel. Protein was transferred to nitrocellulose and then blotted as above for both phospho-specific STAT3 and STAT3."}, "[4]": {"conditions": "personal communication; cited from earlier work"}, "[5]": {"test_system": "JAK1", "test": "JAK kinase autophosphorylation assay on immunoprecipitates (JAK1)", "format": "biochemical", "conditions": "immunoprecipitates from MDA-MB-468 or v-Src/NIH 3T3 cells; AG490 100 μM, PD180970 2 μM", "description": "JAK Kinase Assays. A549, MDA-MB-468, and v-Src transformed NIH 3T3 cells were harvested, washed three times in PBS-V (10 mM sodium phosphate, pH 7.4, 137 mM NaCl, 1 mM sodium orthovanadate) then lysed for 30 min on ice in JAK kinase lysis buffer (25 mM Hepes, pH 7.4, 0.1% Triton-X-100, 0.5 mM DTT, 1 mM sodium orthovanadate, 1 mM PMSF, 10 μg/ml aprotinin, 10 μg/ml leupeptin). Samples were spun at high speed to clear, and 800-1000 μg of protein was immunoprecipitated per treatment condition with 50 ng of either JAK1 or JAK2 antibody (Santa Cruz Biotechnology) rocking overnight at 4° C. 25 μl of protein A/G PLUS agarose then was added and rocking continued for 1 hr at 4° C. Samples were spun to collect agarose pellet, and pellet washed twice in wash buffer (50 mM Hepes, pH 7.4, 0.1% Triton-X-100, 0.5 mM DTT, 150 mM NaCl) and once in phosphorylation buffer (50 mM Hepes, pH 7.4, 0.1% Triton-X-100, 0.5 mM DTI, 6.25 mM manganese chloride, 100 mM NaCl). Kinase reactions were performed at 30° C. for 15 min in a final volume of 100 μl of phosphorylation buffer. Samples were pretreated with DMSO control, JSI-124, and control compounds (AG490, 100 μM, and […], 2 μM) before addition of 20 μCi/sample y-[^32P]ATP. Reaction was halted using stop buffer (wash buffer plus 10 mM EDTA), samples spun to collect pellet, then pellet washed once with stop buffer and twice with wash buffer. Samples were then placed in 2×SDS-PAGE sample buffer, boiled at 100° C., and run on 8% SDS-PAGE gels to separate proteins. Autophosphorylation results were visualized by autoradiography."}},
  "note": "“Also recorded” adds a separate entry of the source. Read-outs that look alike come from different tables or passages of the source.",
  "data": [
    {"compound": "CC(C)(O)/C=C/C(=O)[C@](C)(O)[C@H]1[C@H](O)C[C@@]2(C)[C@@H]3CC=C4[C@@H](C=C(O)C(=O)C4(C)C)[C@]3(C)C(=O)C[C@]12C", "note": "[JSI-124, cucurbitacin I]", "values": [
      {"measurement": "phospho-Akt levels", "setting": "[1]", "value": "no inhibitory effect"},
      {"measurement": "inhibition of A549 tumor growth, reduced dose", "setting": "[2]; 0.5 mg/kg/day for 23 days, nude mice (data not shown)", "value": 52, "unit": "%"},
      {"measurement": "inhibition of A549 tumor growth", "setting": "[2]; 1 mg/kg/day i.p., nude mice", "value": 76, "unit": "%"},
      {"measurement": "levels of tyrosine phosphorylated STAT3 (Western blot)", "setting": "[3]; 10 μM, 4 hr, A549, MDA-MB-468, MDA-MB-231, Panc-1 and v-Src NIH 3T3 cells", "value": "very effective at reducing the levels of tyrosine phosphorylated STAT3"},
      {"measurement": "phosphotyrosine STAT3 levels after STAT3 immunoprecipitation", "setting": "[3]; 10 μM, 4 hr, A549 and MDA-MB-468 cells", "value": "reduced phosphotyrosine STAT3 to barely detectable levels"},
      {"measurement": "levels of tyrosine phosphorylated STAT3, various concentrations", "setting": "[3]; A549 and MDA-MB-468 cells, 0-10 μM, 4 hr", "value": "reduction of the levels of tyrosine phosphorylated STAT3; also recorded: suppression of phospho-STAT3 levels in both cell lines"},
      {"measurement": "inhibition of phospho STAT3 levels (in words)", "setting": "[3]; A-549 cells, 0-10 μM", "value": "inhibits both phospho STAT3 and phospho JAK2 levels"},
      {"measurement": "IC50", "setting": "[3]; A-549 cells, Western blotting, read-out: IC50 for phospho-STAT3", "value": 200, "unit": "nM"},
      {"measurement": "IC50", "setting": "[3]; read-out: IC50 as suppressor of the JAK/STAT3 tumor survival pathway", "value": 200, "unit": "nM"},
      {"measurement": "edema at the subcutaneous site of injection (NCI Developmental Therapeutics Program)", "setting": "[4]", "value": "edema was observed at the subcutaneous site of injection"},
      {"measurement": "JAK1 kinase activity (autophosphorylation) in vitro", "setting": "[5]", "value": "not affected"}
    ]}
  ]
}
